In article PMC549409 (Nucleic Acids Research, 2005):

Target: Has1p (Saccharomyces cerevisiae, UniProt Q03532)
Experiment: malachite green ATPase assay, ADP competition
Assay type: biochemical
Details: 1 mM ADP with 1 mM ATP; total yeast RNA; pH 6.5; 2 mM MgCl2; 30°C; data not shown

Has1p, sequence (Q03532 whole entry): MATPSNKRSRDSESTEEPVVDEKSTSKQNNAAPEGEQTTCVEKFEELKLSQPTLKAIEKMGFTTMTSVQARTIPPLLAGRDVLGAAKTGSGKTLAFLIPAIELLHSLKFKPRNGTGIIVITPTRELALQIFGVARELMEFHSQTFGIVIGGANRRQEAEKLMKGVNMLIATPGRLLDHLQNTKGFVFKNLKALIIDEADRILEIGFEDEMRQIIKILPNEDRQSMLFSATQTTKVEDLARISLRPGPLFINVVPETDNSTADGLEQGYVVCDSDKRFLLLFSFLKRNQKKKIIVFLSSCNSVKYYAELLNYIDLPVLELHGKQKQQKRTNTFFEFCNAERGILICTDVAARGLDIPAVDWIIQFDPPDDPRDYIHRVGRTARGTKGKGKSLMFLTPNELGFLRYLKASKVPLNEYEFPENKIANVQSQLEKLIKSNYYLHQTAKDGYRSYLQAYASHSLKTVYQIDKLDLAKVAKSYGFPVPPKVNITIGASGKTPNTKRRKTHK

fold reduction of ATPase activity at 1 mM ADP: 5 fold
SMILES: Nc1ncnc2c1ncn2[C@@H]1O[C@H](COP(=O)(O)OP(=O)(O)O)[C@@H](O)[C@H]1O [ADP]
